What was measured:
[1] = tested on: (Male) Sxlp^e tTa^(A) tRe lacZ^(I) × C(1)DX (Female); assay: Reporter crosses at 25° C., embryos stained for lacZ; type: in vivo, Drosophila melanogaster
Description: As with “single chromosome crosses”, ten to fifteen virgin females homozygous for the tTA construct and five to ten young males homozygous for the tRe construct were placed on food containing or lacking a tetracycline supplement.
C(1)DX is a compound X chromosome; effectively two X chromosomes joined together. The X chromosome from males crossed to C(1)DX females is therefore inherited by the sons, rather than the daughters.

[2] = tested on: Yp3 tTa, tRe Ras64B^V12 on the 2nd chromosome; assay: Recombinant chromosome experiments / maternal transmission of Tc (Table 1): parents raised on supplement, progeny on normal food, adults by sex; type: in vivo, Drosophila melanogaster; details: for ♀ progeny emerging as adults / ♂ progeny emerging as adults: 25° C.
Description: 40-45 young females and 20-25 young males raised at 25° C. upon food with the indicated tetracycline supplement were allowed to mate, then transferred to normal (tetracycline-free) food after 3-4 days. These flies were transferred to fresh vials of normal food every day for 12 days, then removed on the 13th day. All the vials were incubated at 25° C. while the progeny developed. The numbers of male and female progeny emerging as adults in each vial were recorded.
A standard range of additive concentrations were used in the following experiments (0.05-20 μg/ml). […] (=“not done”)
All the preceding experiments were performed at 25° C., the standard temperature for Drosophila culture. However, the insects in the wild would clearly be exposed to varying temperatures, so we investigated the extent to which the efficiency of the system is affected by temperature. As with the recombinant chromosome experiments, 40-45 young virgin females and 20-25 young males raised at 25° C. upon food with the indicated tetracycline supplement were allowed to mate, then transferred to normal (tetracycline-free) food after 3-4 days. These flies were transferred to fresh vials of normal food every day. The numbers of male and female progeny emerging as adults in each vial were recorded. These experiments were performed at either 18° C. or 29° C.
We used a strain of Drosophila in which females, but not males, require Tc for viability.
A strain homozygous for second chromosome insertions of both Yp3-tTA and tRe-Ras64B^V12 was tested for the effect of parental dietary Tc. 40-45 young females and 20-25 young males raised at 25° C. upon food with the indicated tetracycline supplement were allowed to mate, then transferred to normal (tetracycline-free) food after 3-4 days. These flies were transferred to fresh vials of normal food every day for 12 days, and then removed on the 13th day. All the vials were incubated at 25° C. while the progeny developed. The total numbers of male and female progeny emerging as adults were recorded.

[3] = parents raised on Tc 0.1 μg/ml, Day 8 on normal food
[4] = parents raised on Tc 0.1 μg/ml, Day 9 on normal food
[5] = parents raised on Tc 0.1 μg/ml, Day 10 on normal food
[6] = parents raised on Tc 0.1 μg/ml, Day 11 on normal food
[7] = parents raised on Tc 0.1 μg/ml, Day 12 on normal food
[8] = parents raised on Tc 0.1 μg/ml, Total of Days 1-12 on normal food
[9] = parents raised on Tc 1 μg/ml, Day 8 on normal food
[10] = parents raised on Tc 1 μg/ml, Day 9 on normal food
[11] = parents raised on Tc 1 μg/ml, Day 10 on normal food
[12] = parents raised on Tc 1 μg/ml, Day 11 on normal food
[13] = parents raised on Tc 1 μg/ml, Day 12 on normal food
[14] = parents raised on Tc 1 μg/ml, Total of Days 1-12 on normal food
[15] = parents raised on Tc 5 μg/ml, Day 8 on normal food
[16] = parents raised on Tc 5 μg/ml, Total of Days 1-12 on normal food
[17] = parents raised on Tc 20 μg/ml, Day 1 on normal food
[18] = parents raised on Tc 20 μg/ml, Day 2 on normal food
[19] = parents raised on Tc 20 μg/ml, Day 3 on normal food
[20] = parents raised on Tc 20 μg/ml, Day 4 on normal food
[21] = parents raised on Tc 20 μg/ml, Day 5 on normal food
[22] = parents raised on Tc 20 μg/ml, Day 6 on normal food
[23] = parents raised on Tc 20 μg/ml, Day 7 on normal food
[24] = parents raised on Tc 100 μg/ml, Day 1 on normal food
[25] = parents raised on Tc 100 μg/ml, Day 2 on normal food
[26] = parents raised on Tc 100 μg/ml, Day 3 on normal food
[27] = parents raised on Tc 100 μg/ml, Day 4 on normal food
[28] = parents raised on Tc 100 μg/ml, Day 5 on normal food
[29] = parents raised on Tc 100 μg/ml, Day 6 on normal food
[30] = parents raised on Tc 100 μg/ml, Day 7 on normal food
[31] = parents raised on Tc 500 μg/ml, Day 1 on normal food
[32] = parents raised on Tc 500 μg/ml, Day 2 on normal food
[33] = parents raised on Tc 500 μg/ml, Day 3 on normal food
[34] = parents raised on Tc 500 μg/ml, Day 4 on normal food
[35] = parents raised on Tc 500 μg/ml, Day 5 on normal food
[36] = parents raised on Tc 500 μg/ml, Day 6 on normal food
[37] = parents raised on Tc 500 μg/ml, Day 7 on normal food
[38] = parents raised on Tc 1000 μg/ml, Day 1 on normal food
[39] = parents raised on Tc 1000 μg/ml, Day 2 on normal food
[40] = parents raised on Tc 1000 μg/ml, Day 3 on normal food
[41] = parents raised on Tc 1000 μg/ml, Day 4 on normal food
[42] = parents raised on Tc 1000 μg/ml, Day 5 on normal food
[43] = parents raised on Tc 1000 μg/ml, Day 6 on normal food
[44] = parents raised on Tc 1000 μg/ml, Day 7 on normal food
[45] = parents raised on Tc 2000 μg/ml, Day 1 on normal food
[46] = parents raised on Tc 2000 μg/ml, Day 2 on normal food
[47] = parents raised on Tc 2000 μg/ml, Day 3 on normal food
[48] = parents raised on Tc 2000 μg/ml, Day 4 on normal food
[49] = parents raised on Tc 2000 μg/ml, Day 5 on normal food
[50] = parents raised on Tc 2000 μg/ml, Day 6 on normal food
[51] = parents raised on Tc 2000 μg/ml, Day 7 on normal food
[52] = parents raised on tetracycline 0.1 μg/ml, 18° C.
[53] = parents raised on tetracycline 0.1 μg/ml, 29° C.
[54] = parents raised on tetracycline 1 μg/ml, 18° C.
[55] = parents raised on tetracycline 1 μg/ml, 29° C.
[56] = parents raised on tetracycline 5 μg/ml, 18° C.
[57] = parents raised on tetracycline 5 μg/ml, 29° C.

CN(C)[C@@H]1C(O)=C(C(N)=O)C(=O)[C@@]2(O)C(O)=C3C(=O)c4c(O)cccc4[C@@](C)(O)[C@H]3C[C@@H]12 [Tetracycline, tetracycline]
LacZ negative Total ([1]; Tetracycline 0.1 μg/ml in food): 708
LacZ positive Total ([1]; Tetracycline 0.1 μg/ml in food): 0
LacZ negative Total ([1]; Tetracycline 1 μg/ml in food): 737
LacZ positive Total ([1]; Tetracycline 1 μg/ml in food): 0
LacZ negative Total ([1]; Tetracycline 5 μg/ml in food): 683
LacZ positive Total ([1]; Tetracycline 5 μg/ml in food): 0
♀ progeny emerging as adults [2, 3]: 0
♂ progeny emerging as adults [2, 3]: 105
♀ progeny emerging as adults [2, 4]: 0
♂ progeny emerging as adults [2, 4]: 133
♀ progeny emerging as adults [2, 5]: 0
♂ progeny emerging as adults [2, 5]: 93
♀ progeny emerging as adults [2, 6]: 0
♂ progeny emerging as adults [2, 6]: 131
♀ progeny emerging as adults [2, 7]: 0
♂ progeny emerging as adults [2, 7]: 121
♀ progeny emerging as adults [2, 8]: 0
♂ progeny emerging as adults [2, 8]: 1363
♀ progeny emerging as adults [2, 9]: 0
♂ progeny emerging as adults [2, 9]: 90
♀ progeny emerging as adults [2, 10]: 0
♂ progeny emerging as adults [2, 10]: 119
♀ progeny emerging as adults [2, 11]: 0
♂ progeny emerging as adults [2, 11]: 94
♀ progeny emerging as adults [2, 12]: 0
♂ progeny emerging as adults [2, 12]: 98
♀ progeny emerging as adults [2, 13]: 0
♂ progeny emerging as adults [2, 13]: 100
♀ progeny emerging as adults [2, 14]: 0
♂ progeny emerging as adults [2, 14]: 1360
♀ progeny emerging as adults [2, 15]: 0
♂ progeny emerging as adults [2, 15]: 119
♂ progeny emerging as adults ([2]; parents raised on Tc 5 μg/ml, Day 9 on normal food): 96
♀ progeny emerging as adults ([2]; parents raised on Tc 5 μg/ml, Day 12 on normal food): 0
♀ progeny emerging as adults [2, 16]: 0
♂ progeny emerging as adults [2, 16]: 1384
♀ progeny emerging as adults [2, 17]: 0
♂ progeny emerging as adults [2, 17]: 89
♀ progeny emerging as adults [2, 18]: 0
♂ progeny emerging as adults [2, 18]: 107
♀ progeny emerging as adults [2, 19]: 0
♂ progeny emerging as adults [2, 19]: 107
♀ progeny emerging as adults [2, 20]: 0
♂ progeny emerging as adults [2, 20]: 98
♀ progeny emerging as adults [2, 21]: 0
♂ progeny emerging as adults [2, 21]: 88
♀ progeny emerging as adults [2, 22]: 0
♂ progeny emerging as adults [2, 22]: 102
♀ progeny emerging as adults [2, 23]: 0
♂ progeny emerging as adults [2, 23]: 107
♀ progeny emerging as adults [2, 24]: 0
♂ progeny emerging as adults [2, 24]: 129
♀ progeny emerging as adults [2, 25]: 0
♂ progeny emerging as adults [2, 25]: 136
♀ progeny emerging as adults [2, 26]: 0
♂ progeny emerging as adults [2, 26]: 128
♀ progeny emerging as adults [2, 27]: 0
♂ progeny emerging as adults [2, 27]: 127
♀ progeny emerging as adults [2, 28]: 0
♂ progeny emerging as adults [2, 28]: 135
♀ progeny emerging as adults [2, 29]: 0
♂ progeny emerging as adults [2, 29]: 144
♀ progeny emerging as adults [2, 30]: 0
♂ progeny emerging as adults [2, 30]: 107
♀ progeny emerging as adults [2, 31]: 2
♂ progeny emerging as adults [2, 31]: 136
♀ progeny emerging as adults [2, 32]: 0
♂ progeny emerging as adults [2, 32]: 88
♀ progeny emerging as adults [2, 33]: 0
♂ progeny emerging as adults [2, 33]: 113
♀ progeny emerging as adults [2, 34]: 0
♂ progeny emerging as adults [2, 34]: 113
♀ progeny emerging as adults [2, 35]: 0
♂ progeny emerging as adults [2, 35]: 87
♀ progeny emerging as adults [2, 36]: 0
♂ progeny emerging as adults [2, 36]: 94
♀ progeny emerging as adults [2, 37]: 0
♂ progeny emerging as adults [2, 37]: 109
♀ progeny emerging as adults [2, 38]: 13
♂ progeny emerging as adults [2, 38]: 107
♀ progeny emerging as adults [2, 39]: 5
♂ progeny emerging as adults [2, 39]: 140
♀ progeny emerging as adults [2, 40]: 0
♂ progeny emerging as adults [2, 40]: 110
♀ progeny emerging as adults [2, 41]: 0
♂ progeny emerging as adults [2, 41]: 141
♀ progeny emerging as adults [2, 42]: 0
♂ progeny emerging as adults [2, 42]: 98
♀ progeny emerging as adults [2, 43]: 0
♂ progeny emerging as adults [2, 43]: 129
♀ progeny emerging as adults [2, 44]: 0
♂ progeny emerging as adults [2, 44]: 88
♀ progeny emerging as adults [2, 45]: 32
♂ progeny emerging as adults [2, 45]: 119
♀ progeny emerging as adults [2, 46]: 15
♂ progeny emerging as adults [2, 46]: 102
♀ progeny emerging as adults [2, 47]: 12
♂ progeny emerging as adults [2, 47]: 107
♀ progeny emerging as adults [2, 48]: 9
♂ progeny emerging as adults [2, 48]: 109
♀ progeny emerging as adults [2, 49]: 8
♂ progeny emerging as adults [2, 49]: 109
♀ progeny emerging as adults [2, 50]: 2
♂ progeny emerging as adults [2, 50]: 140
♀ progeny emerging as adults [2, 51]: 0
♂ progeny emerging as adults [2, 51]: 127
Female progeny emerging as adults [2, 52]: 2
Male progeny emerging as adults [2, 52]: 1190
Female progeny emerging as adults [2, 53]: 0
Male progeny emerging as adults [2, 53]: 718
Female progeny emerging as adults [2, 54]: 4
Male progeny emerging as adults [2, 54]: 1213
Female progeny emerging as adults [2, 55]: 0
Male progeny emerging as adults [2, 55]: 753
Female progeny emerging as adults [2, 56]: 0
Male progeny emerging as adults [2, 56]: 1058
Female progeny emerging as adults [2, 57]: 0
Male progeny emerging as adults [2, 57]: 757
parental food concentration leading to survival of a small proportion of female progeny ([2]; progeny on media lacking Tc): ≥ 500 µg/mL
food concentration sufficient to suppress expression of the toxic gene, allowing both males and females to survive ([2]; strain grown on supplemented food): 0.1 µg/mL

Reference: patent publication US9125388B2, “Biological control” (Isis Innovation Limited, priority 1999, dated 2015)
